Assay [1] concerns Dopamine MAB FAM–Dab (DNA, aptamer, dabcyl-5-methyl-dC at 41 (3' end)) ACGCCAGTTTGAAGGTTCGTTCGCAGGTGTGGAGTGACGTC
The experiment in a line: fluorescence quenching titration (molecular aptamer beacon). Conditions: 1x PBS, 2 mM MgCl2; apparent; pH 8.0, 25 °C.

In assay [2] the test system is Dopamine DBS Cy3–BHQ-1 (Int.) (DNA, aptamer) AAATACAACAAGAAAAAACTCTCGGGACGACGACCAGTTTGAAGGTTCGTTCGCAGGTGTGGAGTGACGTCGTCCC
The experiment in a line: fluorescence strand-displacement titration. Conditions: 1x PBS, 2 mM MgCl2; apparent; pH 8.0, 25 °C; displaced 42-nt strand, internal BHQ-1, 4 eq.

The test system of assay [3] is Dopamine DBS FAM(+T)–BHQ-1 (Position 1) (DNA, aptamer, 6-FAM-dT (azide click) at 33) AAATACAACAAGAAAAAACTCTCGGGACGACGTACCAGTTTGAAGGTTCGTTCGCAGGTGTGGAGTGACGTCGTCCC
The experiment in a line: fluorescence strand-displacement titration. Conditions: 1x PBS, 2 mM MgCl2; apparent; pH 8.0, 25 °C; displaced 42-nt 5'-BHQ-1 strand, 4 eq.

Assay [4] has as its system Dopamine MAB FAM–BHQ-1 (DNA, aptamer) ACGCCAGTTTGAAGGTTCGTTCGCAGGTGTGGAGTGACGT
As to the kind of experiment: fluorescence melting. Conditions: 1x PBS, 2 mM MgCl2; derived from two Tm (44.8 ± 0, 37.7 ± 0.1); 50 µM dopamine, pH 8.0.

In assay [5] the test system is Dopamine MAB Cy3–Dab (DNA, aptamer, dabcyl-5-methyl-dC at 41 (3' end)) ACGCCAGTTTGAAGGTTCGTTCGCAGGTGTGGAGTGACGTC
The experiment in a line: fluorescence melting. The conditions noted are these: 1x PBS, 2 mM MgCl2; derived from two Tm (43.3 ± 1.0, 53.6 ± 0.3); 50 µM dopamine, pH 8.0.

Assay [6] concerns Dopamine DBS Cy3–IABkFQ (DNA, aptamer) AAATACAACAAGAAAAAACTCTCGGGACGACGACCAGTTTGAAGGTTCGTTCGCAGGTGTGGAGTGACGTCGTCCC
The experiment in a line: fluorescence strand-displacement titration. Conditions: 1x PBS, 2 mM MgCl2; apparent; pH 8.0, 25 °C; displaced 42-nt 5'-IABkFQ strand, 4 eq.

For assay [7], the system named is Dopamine DBS Cy3–BHQ-1 (Term.) (DNA, aptamer) AAATACAACAAGAAAAAACTCTCGGGACGACGACCAGTTTGAAGGTTCGTTCGCAGGTGTGGAGTGACGTCGTCCC
The experiment in a line: fluorescence strand-displacement titration. The conditions noted are these: 1x PBS, 2 mM MgCl2; apparent; pH 8.0, 25 °C; displaced 43-nt strand, 5'-BHQ-1 plus T, 4 eq.

Assay [8] deals with Dopamine MAB BHQ-1–FAM (DNA, aptamer) ACGCCAGTTTGAAGGTTCGTTCGCAGGTGTGGAGTGACGT
The experiment in a line: fluorescence melting. The conditions noted are these: 1x PBS, 2 mM MgCl2; derived from two Tm (40.0 ± 0.2, 37.3 ± 0.1); 50 µM dopamine, pH 8.0.

Structures are written as SMILES.

On to `NCCc1ccc(O)c(O)c1`, for which the Kd worked out at 3.2 ± 0.2 µM in assay [1]; 34.0 ± 3.3 µM in assay [2]; 6.1 ± 0.7 µM in assay [3]; 85.0 ± 15.6 µM in assay [6]; 142.9 ± 11.7 µM in assay [7]. Further, the Tm in assay [4] is -7.1 °C; in assay [5], 10.3 °C; in assay [8] it was -2.7 °C.

The values are drawn from paper PMC12700101 (2025).
